Laboratory results reported in EPA's ToxRefDB 2.

What was measured:
rat [1] = settings: Prenatal developmental toxicity study; sprague dawley; Oral; Gavage/Intubation; dose end: 17 GD; group: maternal; systemic / in life observation / body weight / body weight + systemic / in life observation / food consumption / food consumption
rat [2] = settings: Fertility (Segment I), sprague dawley, Oral, Gavage/Intubation, dose end: 7 GD, group: parental
dog [3] = settings: Sub-acute repeat dose toxicity; beagle; Oral; Gavage/Intubation; dose end: 4 week; group: systemic; systemic / in life observation / body weight / body weight gain + systemic / in life observation / clinical signs / abnormal feces + …
rabbit [4] = settings: Prenatal developmental toxicity study, new zealand white, Oral, Gavage/Intubation, dose end: 18 GD
rat [5] = settings: Sub-acute repeat dose toxicity, sprague dawley, Oral, Gavage/Intubation, dose end: 4 week, group: systemic
rat [6] = settings: Chronic toxicity, sprague dawley, Oral, Gavage/Intubation, dose end: 6 month, group: systemic
rabbit [7] = settings: Prenatal developmental toxicity study, new zealand white, Oral, Gavage/Intubation, dose end: 18 GD; remark: listed apart in the source
mouse [8] = settings: Subchronic oral toxicity in rodents, cd1, Gavage/Intubation, dose end: 3 month, group: systemic
rat [9] = settings: Prenatal developmental toxicity study; sprague dawley; Oral; Gavage/Intubation; dose end: 17 GD; group: maternal; systemic / in life observation / body weight / body weight gain
dog [10] = settings: Chronic toxicity, beagle, Oral, Gavage/Intubation, dose end: 6 month, group: systemic
rat [11] = settings: Carcinogenicity; fischer; Oral; Feed; dose end: 78 week; group: systemic; systemic / in life observation / body weight / body weight + systemic / pathology microscopic / bone marrow / atrophy
rat [12] = settings: Prenatal developmental toxicity study, sprague dawley, Oral, Gavage/Intubation, dose end: 17 GD
mouse [13] = settings: Carcinogenicity; b6c3f1; Oral; Feed; dose end: 78 week; group: systemic; systemic / in life observation / body weight / body weight
mouse [14] = settings: Chronic toxicity; b6c3f1; Oral; Gavage/Intubation; dose end: 2 year; group: systemic; systemic / pathology microscopic / kidney / necrosis + systemic / pathology microscopic / kidney / regeneration + systemic / pathology …
rat [15] = settings: Subchronic oral toxicity in rodents, fischer, Gavage/Intubation, dose end: 13 week, group: systemic
mouse [16] = settings: Subchronic oral toxicity in rodents, b6c3f1, Gavage/Intubation, dose end: 13 week, group: systemic
rat [17] = settings: Chronic toxicity, fischer, Oral, Gavage/Intubation, dose end: 2 year, group: systemic
[18] = systemic / in life observation / body weight / body weight gain + systemic / in life observation / clinical signs / anogenital staining + …
[19] = systemic / in life observation / body weight / body weight gain + systemic / in life observation / clinical signs / red or crusty deposits …
[20] = group: developmental, systemic / in life observation / body weight / fetal weight
[21] = group: maternal, systemic / in life observation / body weight / body weight gain + systemic / in life observation / food consumption / food consumption
[22] = systemic / clinical chemistry / triglycerides / triglycerides + systemic / in life observation / body weight / body weight gain + systemic…
[23] = systemic / in life observation / body weight / body weight gain + systemic / in life observation / clinical signs / abnormal respiratory …
[24] = systemic / in life observation / body weight / body weight gain + systemic / in life observation / clinical signs / [other] + systemic / in …
[25] = group: developmental, developmental / developmental malformation / bone / incomplete ossification + systemic / in life observation / body weight / fetal weight
[26] = group: maternal, systemic / in life observation / body weight / body weight + systemic / in life observation / body weight / body weight gain + systemic / in…
[27] = systemic / clinical chemistry / alanine aminotransferase (alt/sgpt) / alanine aminotransferase (alt/sgpt) + systemic / clinical chemistry / …
[28] = systemic / in life observation / clinical signs / abnormal feces + systemic / in life observation / clinical signs / body surface staining…
[29] = systemic / in life observation / clinical signs / emesis + systemic / in life observation / clinical signs / salivation
[30] = group: developmental, developmental / developmental malformation / bone / fused + developmental / developmental malformation / brain / dilated cerebral ventricle
[31] = group: developmental, developmental / developmental malformation / bone / fused + developmental / developmental malformation / brain / dilated cerebral ventricle…
[32] = group: maternal, reproductive / reproductive performance / resorptions / resorptions + reproductive / offspring survival early / dead fetuses / dead fetuses…
[33] = systemic / pathology microscopic / intestine small / pigmentation + systemic / pathology microscopic / stomach / acanthosis + systemic / …
[34] = systemic / organ weight / kidney / absolute + systemic / organ weight / kidney / relative to body weight + systemic / organ weight / liver…
[35] = systemic / in life observation / body weight / body weight + systemic / pathology microscopic / kidney / hyperplasia + systemic / pathology …
[36] = systemic / pathology microscopic / intestine small / pigmentation + systemic / pathology microscopic / kidney / hemosiderosis + systemic / …

For `CN1CCN(Cc2cc(-c3ccc4[nH]c(=O)oc4c3)co2)[C@@H](c2ccc(F)cc2)C1.Cl.O` [AVE8488], the LEL (rat [1]) was 10 mg/kg/day, the LOAEL (rat [1]) was 10 mg/kg/day and the NEL (rat [1]) was 1 mg/kg/day. For the same molecule, the NOAEL (rat [1]) was 1 mg/kg/day, the LOAEL (rat [2]; [18]) was > 150 mg/kg/day and the NOAEL (rat [2]; [18]) was ≥ 150 mg/kg/day. The LEL (rat [2]; [19]) was 1 mg/kg/day, the NEL (rat [2]; [19]) was < 1 mg/kg/day and the LEL (dog [3]) was 20 mg/kg/day. For the same molecule, the LOAEL (dog [3]) was 20 mg/kg/day, the NEL (dog [3]) was 5 mg/kg/day and the NOAEL (dog [3]) was 5 mg/kg/day. It also gave an LEL (rabbit [4]; [20]) of 100 mg/kg/day, an LOAEL (rabbit [4]; [20]) of 100 mg/kg/day and an NEL (rabbit [4]; [20]) of 50 mg/kg/day. It also gave an NOAEL (rabbit [4]; [20]) of 50 mg/kg/day, an LEL (rabbit [4]; [21]) of 100 mg/kg/day and an LOAEL (rabbit [4]; [21]) of 100 mg/kg/day. It also gave an NEL (rabbit [4]; [21]) of 50 mg/kg/day, an NOAEL (rabbit [4]; [21]) of 50 mg/kg/day and an LEL (rat [5]; systemic / clinical chemistry / triglycerides / triglycerides + systemic / in life observation / body weight / body weight gain) of 5 mg/kg/day. It also gave an NEL (rat [5]; [22]) of 0.25 mg/kg/day, an LOAEL (rat [5]; [23]) of 50 mg/kg/day and an NOAEL (rat [5]; [23]) of 5 mg/kg/day. The LOAEL (rat [6]; [22]) was 7 mg/kg/day, the NOAEL (rat [6]; [22]) was 1 mg/kg/day and the LEL (rat [6]; [24]) was 1 mg/kg/day. For the same molecule, the NEL (rat [6]; [24]) was < 1 mg/kg/day, the LEL (rabbit [7]; [25]) was 150 mg/kg/day and the LOAEL (rabbit [7]; [25]) was 150 mg/kg/day. For the same molecule, the NEL (rabbit [7]; [25]) was 50 mg/kg/day, the NOAEL (rabbit [7]; [25]) was 50 mg/kg/day and the LEL (rabbit [7]; [26]) was 150 mg/kg/day. It also gave an LOAEL (rabbit [7]; [26]) of 150 mg/kg/day, an NEL (rabbit [7]; [26]) of 50 mg/kg/day and an NOAEL (rabbit [7]; [26]) of 50 mg/kg/day. For the same molecule, the LOAEL (mouse [8]; [27]) was > 2000 mg/kg/day, the NOAEL (mouse [8]; [27]) was ≥ 2000 mg/kg/day and the LEL (mouse [8]; [28]) was 50 mg/kg/day. The NEL (mouse [8]; [28]) was < 50 mg/kg/day, the LEL (rat [9]) was 3.7 mg/kg/day and the LOAEL (rat [9]) was 25 mg/kg/day. It also gave an NEL (rat [9]) of 0.79 mg/kg/day, an NOAEL (rat [9]) of 3.7 mg/kg/day and an NOAEL (dog [10]; systemic / in life observation / clinical signs / emesis + systemic / clinical chemistry / albumin / albumin + systemic / clinical chemistry…) of 5 mg/kg/day. The LEL (dog [10]; [29]) was 1 mg/kg/day, the NEL (dog [10]; [29]) was < 1 mg/kg/day and the LOAEL (dog [10]; systemic / in life observation / clinical signs / emesis + systemic / in life observation / clinical signs / salivation + systemic / …) was 20 mg/kg/day.

In the case of `CCc1nc(N)nc(N)c1-c1ccc(Cl)cc1` [Pyrimethamine], the LEL (rat [11]) is reported as 10 mg/kg/day, the LOAEL (rat [11]) is reported as > 20 mg/kg/day and the NEL (rat [11]) is reported as < 10 mg/kg/day. The NOAEL (rat [11]) was ≥ 20 mg/kg/day, the LEL (rat [12]; [30]) was 1.2 mg/kg/day and the NEL (rat [12]; [30]) was < 1.2 mg/kg/day. For the same molecule, the LOAEL (rat [12]; [31]) was > 2.7 mg/kg/day, the NOAEL (rat [12]; [31]) was ≥ 2.7 mg/kg/day and the NEL (rat [12]; group: maternal, reproductive / reproductive performance / resorptions / resorptions) was 1.2 mg/kg/day. The LEL (rat [12]; [32]) was 2.7 mg/kg/day, the LOAEL (rat [12]; [32]) was > 2.7 mg/kg/day and the NOAEL (rat [12]; [32]) was ≥ 2.7 mg/kg/day. For the same molecule, the LEL (mouse [13]) was 75 mg/kg/day, the LOAEL (mouse [13]) was > 150 mg/kg/day and the NEL (mouse [13]) was < 75 mg/kg/day. For the same molecule, the NOAEL (mouse [13]) was ≥ 150 mg/kg/day.

`Cl.Cl.Nc1ccc(O)c(N)c1` [2,4-Diaminophenol dihydrochloride] was tested, and the LEL (mouse [14]) was 19 mg/kg/day, the LOAEL (mouse [14]) was 19 mg/kg/day and the NEL (mouse [14]) was < 19 mg/kg/day. The NOAEL (mouse [14]) was < 19 mg/kg/day, the LOAEL (rat [15]; systemic / organ weight / kidney / relative to body weight + systemic / pathology microscopic / kidney / necrosis) was 25 mg/kg/day and the NOAEL (rat [15]; systemic / organ weight / kidney / relative to body weight + systemic / pathology microscopic / kidney / necrosis + systemic / in life …) was 12 mg/kg/day. For the same molecule, the LEL (rat [15]; [33]) was 12 mg/kg/day, the NEL (rat [15]; [33]) was < 12 mg/kg/day and the LEL (mouse [16]; [34]) was 5 mg/kg/day. For the same molecule, the NEL (mouse [16]; [34]) was < 5 mg/kg/day, the NOAEL (mouse [16]; [34]) was 19 mg/kg/day and the LOAEL (mouse [16]; systemic / pathology microscopic / kidney / regeneration) was 38 mg/kg/day. The LOAEL (rat [17]; [35]) was 25 mg/kg/day, the NOAEL (rat [17]; [35]) was 12.5 mg/kg/day and the LEL (rat [17]; [36]) was 12.5 mg/kg/day. The NEL (rat [17]; [36]) was < 12.5 mg/kg/day.
